Source: paper PMC10385825, “Synthesis of Benzocycloalkanone-Based Michael Acceptors and Biological Activities as Antimalarial and Antitrypanosomal Agents” (Molecules, 2023)
Values joined by “and” are separate entries in the source; they are usually repeats but may differ in a detail not shown here. Equal values may be shown once.

Assays:
P. berghei ANKA = assay: Four-day suppressive test in P. berghei-infected mice; type: in vivo, Plasmodium berghei (male Balb-C mice); settings: for Sd: Survival days (± SEM): 20 mg kg−1 ip once daily, days 1–4 post-infection; for Sd: Survival days (± SEM) / %P: Percentage of parasitemia (± SEM): n = 6; for %P: Percentage of parasitemia (± SEM): fourth day post-infection, 20 mg kg−1 ip once daily for 4 days; for Survival: surviving mice/total, 20 mg kg−1 ip for 4 days
Protocol: Male Balb-C mice with a weight of 18–22 g were fed with a commercial diet ad libitum under standard procedures of animal care following the aforementioned method approved by the Ethics Committee of the Institute of Immunology. The animals were infected with a rodent malaria strain of Plasmodium berghei ANKA. A million infected erythrocytes, in phosphate-buffered saline solution (PBS, 10 mM, pH 7.4, 0.1 mL), were inoculated ip to infect the animal. The parasitemia was inspected by continuous microscopic examination of Giemsa-stained smears.
One million P. berghei, injected in the caudal vein i.v, were used to infect the mice (n = 6). After two hours of inoculation, the compounds that were active in vitro were dissolved in DMSO (0.1 M) and subsequently diluted with Saline-Tween 20 solution (2%), and administered ip for 4 days (20 mg kg^−^1). The parasite load was evaluated on the fourth day by examining Giemsa-stained smears. Chloroquine (20 mg kg^−^1) was used as the positive control and saline solution as the negative control. Non-treated mice were used as a baseline control for survival times. The survival days and percentage of parasitemia were used to express the results.

β-hematin formation = assay: Inhibition of β-hematin formation in vitro; type: biochemical; settings: for IC50: n = 3, read-out: IC50 (βHF) inhibition of β-hematin formation (± SEM)
Protocol: The assay was performed according to previously reported protocols. Hemin chloride (50 μL, 4 mM) in DMSO (5.2 mg mL^−1) was pipetted into 96-well microplates. Different concentrations (0.1–100 mM) of the compounds in DMSO were added in triplicate (50 μL) with a final concentration of 0.025 mM–25 mM/well. Water (50 μL) or DMSO (50 μL) were used as controls. […] Next, the plates were incubated at 37 °C for 48 h and subsequently centrifuged (4000 rpm × 15 min). The supernatant was washed twice with DMSO (200 μL) and resuspended in NaOH (200 μL, 0.2 N). The solubilized products were diluted (1:2) with NaOH (0.1 N), and the plates were read in an ELISA reader at 405 nm (Microplate Reader, BIORAD-550). The results are expressed as % IβHF.

VERO cells = assay: Cytotoxicity assay in VERO cells (MTT); type: cell-based; settings: Chlorocebus sabaeus, 72 h
Protocol: The in vitro evaluations of compounds toxicity by MTT in VERO cells were performed as described in brief: VERO cells culture in DMEM, BSF 10%, were counted in suspension, seeded at 2 × 10^4 cells/well (100 μL) into a 96-well microplate, and incubated at 37 °C in a humidified 5% CO2 incubator for 24 h. After the incubation period, compounds were added in different concentrations: 50, 100, 150, 200, and 500 μM. The plate was incubated for 72 h in the same conditions. Then, 5 mg mL^−^1 of 3-(4,5-dimethylthiazol-2-yl)-2,5-diphenyl tetrazolium bromide (MTT) was added and incubated in darkness for 4 h. After this time, DMSO was added and the plate was read at 540 nm in a spectrophotometer Synergy HT (Biotek). The test was carried out in triplicate including untreated cells and reference drug controls.

[1] = system: T. cruzi epimastigotes (Y strain); assay: Trypanocidal activity, proliferation of T. cruzi epimastigotes (MTT); type: cell-based; settings: Trypanosoma cruzi, 96 h, read-out: %ITcP: T. cruzi (epimastigotes) % inhibition proliferation
Protocol: The trypanocidal activity of compounds 7–39 was evaluated on the viability of T. cruzi epimastigotes (Y Strain). Parasites were cultivated in LIT medium supplemented with 10% FBS. The MTT method was used with minor modifications. Next, 2 × 10^6 parasites/mL were seeded in a 96-well plate, adding 50 μM of each derivative dissolved in DMSO (final concentration remained below 1%). The plate was incubated for 96 h at 29 °C. Then, 5 mg mL^−^1 of 3-(4,5-dimethylthiazol-2-yl)-2,5-diphenyl tetrazolium bromide (MTT) was added and incubated in darkness for 4 h. After this time, acidic isopropanol (4N) was added and the plate was read at 540 nm in a spectrophotometer Synergy HT (Biotek). Benznidazole (50 µM) was used as a reference drug.

Compound	Sd: Survival days (± SEM) (P. berghei ANKA)	%P: Percentage of parasitemia (± SEM) (P. berghei ANKA) [%]	Survival (P. berghei ANKA)	%IβHF: Percentage inhibition β-hematin formation (β-hematin formation; concentration of 10 μM) [%]	IC50 (β-hematin formation) [µM]	IC50 (VERO cells) [µM]	inhibition at 50 µM [1] [%]
CCN(CC)CCCC(C)Nc1ccnc2cc(Cl)ccc12 (centres unmarked) [CQ, chloroquine, reference compound]	28 ± 1.34 days and 28 ± 1.3 days	1.4 ± 0.54	5/6	95.34	0.18 ± 0.1	–	–
COc1ccc2c(c1OC)C/C(=C\c1ccc(SCc3ccccc3)cc1)C2=O [compound 10, (E)-2-[4-(Benzylthio)benzylidene]-2,3-dihydro-4,5-dimethoxyinden-1-one]	18.8 ± 4.91 days and 18.8 ± 4.9 days	9.1 ± 2.44	0/6	–	33.1 ± 2.5	> 150	33 ± 5.6
COc1ccc(OC)c2c1C/C(=C\c1ccc(SCc3ccccc3)cc1)C2=O [compound 12, (E)-2-[4-(Benzylthio)benzylidene]-2,3-dihydro-4,7-dimethoxyinden-1-one]	12.3 ± 2.40 days and 12.3 ± 2.4 days	12.5 ± 3.1	0/6	–	0.66 ± 0.1	> 150	18.5 ± 2.9
COc1cc2c(cc1OC)C(=O)/C(=C/c1ccc(SCc3ccccc3)cc1)C2 [compound 11, (E)-2-[4-(Benzylthio)benzylidene]-2,3-dihydro-5,6-dimethoxyinden-1-one]	14.2 ± 2.16 days and 14.2 ± 2.2 days	7.6 ± 2.3	0/6	–	0.82 ± 0.1	> 150	40 ± 8.2
